Laboratory results from patent publication US20240299384A1, “METHODS FOR TREATING PULMONARY HYPERTENSION IN PATIENTS WITH LEFT VENTRICULAR ASSIST DEVICE IMPLANTATION” (ACTELION PHARMACEUTICALS LTD, priority 2021, published 2024).

Columns and labels:
healthy male subjects = assay: Phase 1 open-label study of 75 mg qd macitentan with and without up-titration: safety; type: in vivo, human
Experimental: This is a single-sequence, open-label, single-center, Phase 1 study in healthy male subjects. The study assessed the effect of 75 mg qd administration of macitentan. The study includes a screening phase of 21 days before the first macitentan administration, followed by an open-label treatment phase. Randomization was not used and subjects received the same treatment.
• 29 subjects were enrolled.
Administration of 75 mg qd macitentan started on Day 1. Macitentan was administered every day in the morning between 8:00 and 11:00 with 240 mL of noncarbonated water. One 75-mg macitentan film-coated tablet was thus administered as multiple qd oral doses under fed conditions.
Subjects were planned to take macitentan 75 mg for 15 days. However the study was interrupted on the morning of day 8, i.e. when subjects had received 7 doses of macitentan 75 mg.
Macitentan was administered in an up-titration regimen in the morning between 8:00 and 11:00 with 240 mL of noncarbonated water. One macitentan film-coated tablet (10 mg, 37.5 mg or 75 mg) was administered as multiple qd oral doses under fed conditions on Days 1-9 and Days 11-12, and under fasted conditions on Days 10 and 13. The up-titration regimen consists of 2 qd doses of 10 mg macitentan and 3 qd doses of 37.5 mg macitentan followed by 8 qd doses of 75 mg macitentan. On Days −4, −3, 10 and 13 (i.e., the days when dosing occurred under fasted conditions), no fluid intake apart from the water taken at the time of macitentan administration was allowed from 1 hour before until 1 hour after administration of macitentan.
All reported AEs with onset during the treatment phase were included in the analysis. The effects on cardiovascular variables were evaluated and the following variables were collected: PR (ms), QRS (ms), QT (ms), QTcB (ms), QTcF (ms), heart rate (bpm), and RR. The normal range for vital signs is defined as follows: • Systolic blood pressure: 100-140 mmHg • Diastolic blood pressure: 60-90 mmHg • Pulse rate: 45-90 bpm • Respiratory rate: 8-20 per minute • Body temperature: 35.0° C. to 37.5° C.
An AE is any untoward medical occurrence, i.e., any unfavorable and unintended sign (including an abnormal finding), symptom, or disease temporally associated with the use of macitentan. A treatment-emergent AE is any occurrence that is new in onset or aggravated in severity from the baseline condition. The following are used to assess all AEs: • Related: There is a reasonable causal relationship between macitentan administration and the AE. • Not Related: There is not a reasonable causal relationship between macitentan administration and the AE.
An assessment of AE severity grade was made using the following general categorical descriptors: • Mild: Awareness of symptoms that are easily tolerated, causing minimal discomfort and not interfering with everyday activities. • Moderate: Sufficient discomfort is present to cause interference with normal activity. • Severe: Extreme distress, causing significant impairment of functioning or incapacitation. Prevents normal everyday activities.

[1] = humans, cited from earlier work
[2] = 75 mg qd, no titration, 6 subjects

CCCNS(=O)(=O)Nc1ncnc(OCCOc2ncc(Br)cn2)c1-c1ccc(Br)cc1 [Macitentan, propylsulfamic acid [5-(4-bromo-phenyl)-6-[2-(5-bromo-pyrimidin-2-yloxy)-ethoxy]-pyrimidin-4-yl]-amide]
reduction in hemoglobin (healthy male subjects; 75 mg qd): ≤ 2 g/dL | vital signs, ECG and lab parameters (healthy male subjects; 75 mg qd): no clinically significant changes | severity of AEs overall (healthy male subjects; 75 mg qd, AEs reported from Day 2 onwards): mainly mild | Photophobia, Severity of AEs (No titration) (healthy male subjects; [2]): All mild | Sinusitis/rhinitis/nasal congestion, Severity of AEs (No titration) (healthy male subjects; [2]): All mild | tolerability with up-titration regimen (healthy male subjects; 75 mg, up-titration vs no up-titration): improved tolerability | resolution of AEs (healthy male subjects; four days after stopping macitentan): most of the AEs resolved | Sinusitis/rhinitis/nasal congestion, Severity of AEs (With titration) (healthy male subjects; up-titration 10 mg, 37.5 mg, 75 mg qd, 6 subjects): Mild, less | completion of treatment (healthy male subjects; up-titration regimen cohort): All subjects completed treatment | time to steady state ([1]; 10 mg oral dose once a day): third day | absorption into the plasma [1]: absorbed slowly | half-life [1]: about 16 hours
